Source: PubChem BioAssay (NCI)
“And” between values parts separate entries of the source, which are not always exact repeats. Equal entries are not always repeated.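 Five compound concentrations were applied to cells in 96-well plates for 48 hours; endpoints were derived by simple linear interpolation of the resulting dose-response curve. GI50 = concentration required for 50% inhibition of growth. The concentration for full growth arrest is given as TGI.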

What was measured:
Assay in all cases: NCI anticancer screen, dose series, 48 h
SN12C renal = tested on: SN12C renal
NCI-H522 lung = tested on: NCI-H522 lung
IGROV1 ovarian = tested on: IGROV1 ovarian
CAKI-1 renal = tested on: CAKI-1 renal
U251 CNS = tested on: U251 CNS
SNB-19 CNS = tested on: SNB-19 CNS
UO-31 renal = tested on: UO-31 renal
OVCAR-4 ovarian = tested on: OVCAR-4 ovarian
TK-10 renal = tested on: TK-10 renal
DU-145 prostate = tested on: DU-145 prostate

SMILES | TGI (SN12C renal) | TGI (NCI-H522 lung) | TGI (IGROV1 ovarian) [µM] | TGI (CAKI-1 renal) | TGI (U251 CNS) | TGI (SNB-19 CNS) | TGI (UO-31 renal) [µM] | TGI (OVCAR-4 ovarian) | TGI (TK-10 renal) [µM] | GI50 (SN12C renal) | GI50 (OVCAR-4 ovarian) | GI50 (TK-10 renal) | GI50 (NCI-H522 lung) | GI50 (IGROV1 ovarian) | GI50 (CAKI-1 renal) | GI50 (U251 CNS) | GI50 (SNB-19 CNS) | GI50 (UO-31 renal) | TGI (DU-145 prostate) [µM] | GI50 (DU-145 prostate) [µM]
O=c1cccccc1NCCCNc1cccccc1=O | 32.3 µM | > 100 µM | > 100 | > 100 µM | > 100 µM | > 100 µM | > 100 | – | – | – | – | – | – | – | – | – | – | – | – | –
CN(C)P(=O)(/C(N)=N/Nc1ccc([N+](=O)[O-])cc1)N(C)C | > 100 µM | > 100 µM | – | > 100 µM | > 100 µM | > 100 µM | > 100 | > 100 µM | > 100 | – | – | – | – | – | – | – | – | – | – | –
Cc1ccc2nc3c(C(=O)NCCN(C)C)cccc3nc2c1 | 27.9 µM | > 100 µM | > 60.1 | > 31.6 µM | 24.3 µM | 46.3 µM | > 54.8 | 15.2 µM | > 66 | – | – | – | – | – | – | – | – | – | – | –
CCC[CH2][Sn]1([CH2]CCC)[O]C(=O)C(C(C)C)N=Cc2ccccc2[O]1 (centres undefined) | 0.987 µM | 0.168 µM | > 100 | 0.47 µM | 0.636 µM | 0.645 µM | 1.8 | 2.07 µM | 0.73 | 0.288 µM | 0.836 µM | 0.272 µM | 0.0442 µM | 2.21 µM | 0.136 µM | 0.228 µM | 0.214 µM | 0.462 µM | – | –
Cn1cc(C(=O)c2ccccc2)ccc1=O | > 100 µM | > 100 µM | > 100 | > 100 µM | > 100 µM | > 100 µM | > 100 | > 100 µM | > 100 | – | – | – | – | – | – | – | – | – | – | –
O=C(CP(=O)(c1ccccc1)c1ccccc1)c1cccc(C(=O)CP(=O)(c2ccccc2)c2ccccc2)c1 | > 100 µM | – | > 100 | > 100 µM | – | > 100 µM | > 100 | > 100 µM | > 100 | – | – | – | – | – | – | – | – | – | > 100 | –
COC(=O)C(=O)C(C(=O)C(=O)Nc1ccccc1C(N)=O)c1nc2ccc(Cl)cc2[nH]c1=O (centres undefined) | > 100 µM | – | – | > 100 µM | > 100 µM | > 100 µM | > 100 | > 100 µM | – | – | – | – | – | – | – | – | – | – | > 100 | –
CCN(CC)CCN1CC(O)=C(c2nc(-c3ccc(Cl)cc3)cs2)C1=N | > 100 µM | – | – | 6.72 µM | 3.17 µM | 4.5 µM | 20.2 | > 100 µM | 5.65 | 5.25 µM | 18.3 µM | 2.86 µM | – | – | 1.98 µM | 1.68 µM | 2.1 µM | 3.83 µM | 62.4 | 7.26
COc1cc(OC)c(/C=C/C(=O)c2c(OC)cccc2OC)c(OC)c1 | > 100 µM | – | – | 97 µM | > 100 µM | > 100 µM | > 100 | > 100 µM | > 100 | 1.1 µM | 19.7 µM | 5.03 µM | – | 0.497 µM | 0.463 µM | 0.592 µM | 0.775 µM | 0.899 µM | > 29.3 | 2.01
CC(=O)OC[C@]12CC[C@H]3[C@@H](C[C@H]4O[C@]45[C@@H](O)C=CC(=O)[C@]35C)[C@@H]1CC[C@@H]2[C@H](C)[C@H]1CC(C)=C(C)C(=O)O1 | 0.943 µM and 1.16 µM | 0.561 µM and 0.406 µM | 2.7 | 0.831 µM and 1.08 µM | 0.91 µM and 1.95 µM | 0.899 µM and 2.52 µM | 2 | 0.9 µM and 1.06 µM | 1.82 | 0.401 µM and 0.322 µM | 0.571 µM and 0.331 µM | 0.548 µM and 0.68 µM | 0.259 µM and 0.166 µM | 0.706 µM and 0.924 µM | 0.385 µM and 0.266 µM | 0.688 µM and 0.742 µM | 0.7 µM and 1.16 µM | 0.84 µM and 0.776 µM | – | –
Cc1cn2c(/C=C3/C(=O)N(C)c4ccccc43)c(C)nc2s1 | > 100 µM | 30.2 µM | 70.3 | – | > 100 µM | 27.7 µM | > 100 | > 100 µM | > 100 | 25.5 µM | 21.9 µM | 21.5 µM | 5.04 µM | 6.98 µM | – | 8.08 µM | 5.51 µM | 17.2 µM | > 100 | 27.4
CCOC(=O)NC(=O)c1cn(CCOCCOC(=O)NCCCCCCNC(=O)OCCOCCn2cc(C(=O)NC(=O)OCC)c(=O)[nH]c2=O)c(=O)[nH]c1=O | > 100 µM | > 100 µM | > 100 | – | > 100 µM | > 100 µM | > 100 | > 100 µM | > 100 | – | – | – | – | – | – | – | – | – | – | –
Cc1nc2ccccc2c(=O)n1NC(=O)c1ccccn1 | > 100 µM | > 100 µM | > 100 | – | > 100 µM | > 100 µM | > 100 | > 100 µM | > 100 | – | – | – | – | – | – | – | – | – | > 100 | –
Cc1cc(S(=O)(=O)Nc2nc(N)nc(N3N=CCC3C)n2)c(SCC(=O)O)cc1Cl (centres undefined) | > 10 µM | > 10 µM | > 10 | > 10 µM | > 10 µM | > 10 µM | – | > 10 µM | > 10 | – | – | – | – | – | – | – | – | – | > 10 | –
O=C(O)CP(=S)(S)c1ccccc1 (centres undefined) | > 100 µM | > 100 µM | – | > 100 µM | > 100 µM | > 100 µM | > 100 | > 100 µM | > 100 | – | – | – | – | – | – | – | – | – | – | –
COC(=O)c1cccc2cccc(C(=O)Nc3ccc(C)cc3C)c12 | > 100 µM | > 100 µM | > 100 | > 100 µM | > 100 µM | > 100 µM | > 100 | > 100 µM | > 100 | – | – | – | – | – | – | – | – | – | – | –
Cc1ccccc1N(CCC#N)C1=NN(C(=O)CC(=O)Nc2ccccc2)C(c2ccccc2)C1 (centres undefined) | > 100 µM | > 100 µM | > 100 | – | > 100 µM | > 100 µM | > 100 | > 100 µM | – | – | – | – | – | – | – | – | – | – | – | –
CC1(n2nc(-c3ccccc3)n(-c3ccccc3)c2=O)CSC1 | > 100 µM | > 100 µM | > 100 | > 100 µM | > 100 µM | > 100 µM | > 100 | > 100 µM | > 100 | – | – | – | – | – | – | – | – | – | – | –
